According to ChEMBL document CHEMBL1153515 (Bioorg Med Chem, 2009):

How the values were obtained:
Type in all cases: functional
[1] = molecular target: 5-hydroxytryptamine receptor 3A (Mus musculus, UniProt P23979, H184Y); assay: Agonist activity at mouse 5HT3A H185Y receptor mutant expressed in Xenopus oocyte by two-electrode voltage patch method
[2] = molecular target: 5-hydroxytryptamine receptor 3A (Mus musculus, UniProt P23979, S181A); assay: Agonist activity at mouse 5HT3A S182A receptor mutant expressed in Xenopus oocyte by two-electrode voltage patch method
5-hydroxytryptamine receptor 3A (Mus musculus, UniProt P23979, S181A), sequence (P23979 24-489 S182A limits assumed): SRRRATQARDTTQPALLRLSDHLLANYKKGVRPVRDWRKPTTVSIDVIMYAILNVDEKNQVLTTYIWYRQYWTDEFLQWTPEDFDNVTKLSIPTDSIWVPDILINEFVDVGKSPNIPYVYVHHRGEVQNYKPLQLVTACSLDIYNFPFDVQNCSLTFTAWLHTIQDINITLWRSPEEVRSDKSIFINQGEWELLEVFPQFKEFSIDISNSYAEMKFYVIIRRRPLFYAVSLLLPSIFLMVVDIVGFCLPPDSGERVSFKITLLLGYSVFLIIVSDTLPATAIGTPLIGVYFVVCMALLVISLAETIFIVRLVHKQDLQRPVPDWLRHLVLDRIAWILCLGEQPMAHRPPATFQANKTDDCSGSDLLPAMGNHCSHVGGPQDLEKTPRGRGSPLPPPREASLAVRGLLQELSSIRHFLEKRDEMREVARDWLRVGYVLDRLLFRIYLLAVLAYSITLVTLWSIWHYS

[3] = molecular target: 5-hydroxytryptamine receptor 3A (Mus musculus, UniProt P23979, T185A); assay: Agonist activity at mouse 5HT3A T186A receptor mutant expressed in Xenopus oocyte by two-electrode voltage patch method
5-hydroxytryptamine receptor 3A (Mus musculus, UniProt P23979, T185A), sequence (P23979 24-489 T186A limits assumed): as the sequence (P23979 24-489 S182A limits assumed) above, with A159S, T163A counted along it

[4] = molecular target: 5-hydroxytryptamine receptor 3A (Mus musculus, UniProt P23979, L183V); assay: Agonist activity at mouse 5HT3A L184V receptor mutant expressed in Xenopus oocyte by two-electrode voltage patch method
5-hydroxytryptamine receptor 3A (Mus musculus, UniProt P23979, L183V), sequence (P23979 24-489 L184V limits assumed): as the sequence (P23979 24-489 S182A limits assumed) above, with A159S, L161V counted along it

[5] = molecular target: 5-hydroxytryptamine receptor 3A (Mus musculus, UniProt P23979, I189V); assay: Agonist activity at mouse 5HT3A I190V receptor mutant expressed in Xenopus oocyte by two-electrode voltage patch method
5-hydroxytryptamine receptor 3A (Mus musculus, UniProt P23979, I189V), sequence (P23979 24-489 I190V limits assumed): as the sequence (P23979 24-489 S182A limits assumed) above, with A159S, I167V counted along it

[6] = molecular target: 5-hydroxytryptamine receptor 3A (Mus musculus, UniProt P23979, Y152A); assay: Agonist activity at mouse 5HT3A Y153A receptor mutant expressed in Xenopus oocyte by two-electrode voltage patch method
5-hydroxytryptamine receptor 3A (Mus musculus, UniProt P23979, Y152A), sequence (P23979 24-489 Y153A limits assumed): as the sequence (P23979 24-489 S182A limits assumed) above, with Y130A, A159S counted along it

[7] = molecular target: 5-hydroxytryptamine receptor 3A (Mus musculus, UniProt P23979, W182F); assay: Agonist activity at mouse 5HT3A W183F receptor mutant expressed in Xenopus oocyte by two-electrode voltage patch method
5-hydroxytryptamine receptor 3A (Mus musculus, UniProt P23979, W182F), sequence (P23979 24-489 W183F limits assumed): as the sequence (P23979 24-489 S182A limits assumed) above, with A159S, W160F counted along it

[8] = molecular target: T1, 5-hydroxytryptamine receptor 3A (Mus musculus, UniProt P23979); assay: Agonist activity at wild type mouse 5HT3A receptor expressed in Xenopus oocyte by two-electrode voltage patch clamp method
T1 sequence (P23979 whole entry): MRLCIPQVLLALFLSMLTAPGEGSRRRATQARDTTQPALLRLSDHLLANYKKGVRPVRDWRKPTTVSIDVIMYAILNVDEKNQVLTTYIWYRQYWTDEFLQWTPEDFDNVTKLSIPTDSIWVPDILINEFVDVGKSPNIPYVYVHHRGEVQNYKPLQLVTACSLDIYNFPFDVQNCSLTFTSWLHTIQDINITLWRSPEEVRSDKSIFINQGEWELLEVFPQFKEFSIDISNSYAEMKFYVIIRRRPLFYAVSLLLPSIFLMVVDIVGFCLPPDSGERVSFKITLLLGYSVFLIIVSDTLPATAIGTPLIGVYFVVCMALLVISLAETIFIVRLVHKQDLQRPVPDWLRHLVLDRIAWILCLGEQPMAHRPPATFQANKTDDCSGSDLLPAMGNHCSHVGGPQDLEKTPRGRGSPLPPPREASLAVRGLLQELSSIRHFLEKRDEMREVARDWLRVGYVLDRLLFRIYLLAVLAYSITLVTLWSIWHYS

[9] = molecular target: 5-hydroxytryptamine receptor 3A (Mus musculus, UniProt P23979, H184F); assay: Agonist activity at mouse 5HT3A H185F receptor mutant expressed in Xenopus oocyte by two-electrode voltage patch method
5-hydroxytryptamine receptor 3A (Mus musculus, UniProt P23979, H184F), sequence (P23979 24-489 H185F limits assumed): as the sequence (P23979 24-489 S182A limits assumed) above, with A159S, H162F counted along it

[10] = molecular target: 5-hydroxytryptamine receptor 3A (Mus musculus, UniProt P23979, Y142F); assay: Agonist activity at mouse 5HT3A Y143F receptor mutant expressed in Xenopus oocyte by two-electrode voltage patch method
5-hydroxytryptamine receptor 3A (Mus musculus, UniProt P23979, Y142F), sequence (P23979 24-489 Y143F limits assumed): as the sequence (P23979 24-489 S182A limits assumed) above, with Y120F, A159S counted along it

[11] = molecular target: 5-hydroxytryptamine receptor 3A (Mus musculus, UniProt P23979, Y152F); assay: Agonist activity at mouse 5HT3A Y153F receptor mutant expressed in Xenopus oocyte by two-electrode voltage patch method
5-hydroxytryptamine receptor 3A (Mus musculus, UniProt P23979, Y152F), sequence (P23979 24-489 Y153F limits assumed): as the sequence (P23979 24-489 S182A limits assumed) above, with Y130F, A159S counted along it

[12] = molecular target: 5-hydroxytryptamine receptor 3A (Mus musculus, UniProt P23979, I186A); assay: Agonist activity at mouse 5HT3A I187A receptor mutant expressed in Xenopus oocyte by two-electrode voltage patch method
5-hydroxytryptamine receptor 3A (Mus musculus, UniProt P23979, I186A), sequence (P23979 24-489 I209A limits assumed): as the sequence (P23979 24-489 S182A limits assumed) above, with A159S, I186A counted along it

[13] = molecular target: 5-hydroxytryptamine receptor 3A (Mus musculus, UniProt P23979, T180A); assay: Agonist activity at mouse 5HT3A T181A receptor mutant expressed in Xenopus oocyte by two-electrode voltage patch method
5-hydroxytryptamine receptor 3A (Mus musculus, UniProt P23979, T180A), sequence (P23979 24-489 T181A limits assumed): as the sequence (P23979 24-489 S182A limits assumed) above, with T158A, A159S counted along it

[14] = molecular target: 5-hydroxytryptamine receptor 3A (Mus musculus, UniProt P23979, Q187A); assay: Agonist activity at mouse 5HT3A Q188A receptor mutant expressed in Xenopus oocyte by two-electrode voltage patch method
5-hydroxytryptamine receptor 3A (Mus musculus, UniProt P23979, Q187A), sequence (P23979 24-489 Q188A limits assumed): as the sequence (P23979 24-489 S182A limits assumed) above, with A159S, Q165A counted along it

5-hydroxytryptamine receptor 3A (Mus musculus, UniProt P23979, H184Y), sequence (P23979 24-489 H185Y limits assumed): as the sequence (P23979 24-489 S182A limits assumed) above, with A159S, H162Y counted along it

Question: For `N=C(N)NC(=N)Nc1cccc(Cl)c1`, which EC50 [1] is on record?
Answer: 5.4 µM

Question: What about the EC50 [2] of the same molecule?
Answer: 27 µM

Question: What about the EC50 [3] of the same molecule?
Answer: 1.7 µM

Question: What about the EC50 [4] of the same molecule?
Answer: 5.1 µM

Question: What about the EC50 [5] of the same molecule?
Answer: 2 µM

Question: What about the EC50 [6] of the same molecule?
Answer: 7.6 µM

Question: And the EC50 [7]?
Answer: 16 µM

Question: And the EC50 [8]?
Answer: 0.8 µM

Question: What about the EC50 [9] of the same molecule?
Answer: 2.5 µM

Question: And the EC50 [10]?
Answer: 5.3 µM

Question: And the EC50 [11]?
Answer: 2.2 µM

Question: And the EC50 [12]?
Answer: 52 µM

Question: What about the EC50 [13] of the same molecule?
Answer: 2.2 µM

Question: What about the EC50 [14] of the same molecule?
Answer: 2.3 µM
